Data as given in patent US4987144A, “1,3-bis(1,2,4-triazol-1-yl)2-(4-trifluoromethylphenyl)propan-2-ol useful for the prevention and/or treatment of deep-seated mycosis” (SS Pharmaceutical Co., Ltd., priority 1989, dated 1991).

Assays:
Candida albicans [1] = assay: Antimycotic activities of similar compounds in a manner similar to Test 1, oral administration (Referential Test); format: in vivo, Candida albicans (in male ICR mice); conditions: in Mus musculus, 336 h, read-out: T/C; for response vs control in vivo at 40 mg: Dose (mg) 40, oral
Experimental: (§1) Male ICR mice of 4 weeks old were used as groups, each consisted of 5 mice. Each mouse was inoculated at caudal vein with 2.8×106^6 cells of Candida albicans. From one hour after the inoculation, each test compound was dissolved in 0.5 mλ of 0.06 N hydrochloric acid which had been added with "0.2% TO-10M" (trade name; product of Nikko Chemicals Co., Ltd.) and was orally administered once a day, four times in total. The mice were observed until the 14th day after the inoculation of the fungus. The average survival days of each group was compared with those of the control group to determine T/C (%). [formula]
In a manner similar to Test 1, antimycotic activities of each of the test compounds shown below in Table 2 were investigated. As will be readily envisaged from the results, practically no antimycotic activities were observed from the oral administration of those compounds.

Candida albicans [2] = assay: Antimycotic activities: survival of mice inoculated with Candida albicans, oral administration (Test 1); format: in vivo, Candida albicans (in male ICR mice); conditions: for T/C: once a day, four times, average survival days vs control, to 14th day after inoculation
Experimental: as §1

[3] = Measurement of body weight variations (Test 2); format: in vivo, male ICR mice; conditions: for body weight change after administration (in words): group administered with the compound; for body weight: 2.5 mg/Kg
Acute toxicity, oral = conditions: mouse, in vivo, mice, P.O.

**Q.** For `N#Cc1ccc(C(O)(Cn2cncn2)Cn2cncn2)c(F)c1`, which response vs control in vivo at 40 mg (Candida albicans [1]) is on record?
**A.** 81%

**Q.** For `OC(Cn1cncn1)(Cn1cncn1)c1ccc(-c2ccc(F)cc2)cc1`, which response vs control in vivo at 40 mg (Candida albicans [1]) is on record?
**A.** 136%

**Q.** With `CC(=O)Nc1ccc(C(O)(Cn2cncn2)Cn2cncn2)c(F)c1` as the compound, how does the response vs control in vivo at 40 mg (Candida albicans [1]) read?
**A.** 82%

**Q.** For `OC(Cn1cncn1)(Cn1cncn1)c1cc(C(F)(F)F)cc(C(F)(F)F)c1`, which response vs control in vivo at 20 mg (Candida albicans [1]; Dose (mg) 20, oral) is on record?
**A.** 118%

**Q.** Which response vs control in vivo at 40 mg (Candida albicans [1]) does the source give for `CCCOc1cc(F)ccc1C(O)(Cn1cncn1)Cn1cncn1` here?
**A.** 125%

**Q.** For `Oc1c(F)cc(C(O)(Cn2cncn2)Cn2cncn2)cc1F`, which response vs control in vivo at 40 mg (Candida albicans [1]) is on record?
**A.** 82%

**Q.** With `COc1c(F)cc(C(O)(Cn2cncn2)Cn2cncn2)cc1F` as the compound, how does the response vs control in vivo at 40 mg (Candida albicans [1]) read?
**A.** 91%

**Q.** With `OC(Cn1cncn1)(Cn1cncn1)c1cc(F)c(OCc2ccccc2)c(F)c1` as the compound, how does the response vs control in vivo at 40 mg (Candida albicans [1]) read?
**A.** 73%

**Q.** With `OC(Cn1cncn1)(Cn1cncn1)c1ccc(F)cc1OCc1ccccc1` as the compound, how does the response vs control in vivo at 40 mg (Candida albicans [1]) read?
**A.** 122%

**Q.** With `OC(Cn1cncn1)(Cn1cncn1)c1ccc(F)cc1OCc1ccc(F)cc1` as the compound, how does the response vs control in vivo at 40 mg (Candida albicans [1]) read?
**A.** 117%

**Q.** With `Oc1cc(F)c(F)cc1C(O)(Cn1cncn1)Cn1cncn1` as the compound, how does the response vs control in vivo at 40 mg (Candida albicans [1]) read?
**A.** 125%

**Q.** With `OC(Cn1cncn1)(Cn1cncn1)c1ccc(F)cc1F` [Fluconazole] as the compound, how does the T/C (Candida albicans [2]; 1.25 mg/kg) read?
**A.** 143%

**Q.** What about the T/C (Candida albicans [2]; 2.5 mg/kg) of the same compound?
**A.** 379%

**Q.** And the T/C (Candida albicans [2]; 5 mg/kg)?
**A.** 443%

**Q.** And the “body weight change after administration (in words)” value [3]?
**A.** body weight reductions were observed

**Q.** With `OC(Cn1cncn1)(Cn1cncn1)c1ccc(C(F)(F)F)cc1` [Triazole compound (I), 1,3-bis(1,2,4-triazol-l-yl)-2-(4-trifluoromethylphenyl)propan-2-ol] as the compound, how does the T/C (Candida albicans [2]; 1.25 mg/kg) read?
**A.** 186%

**Q.** And the T/C (Candida albicans [2]; 2.5 mg/kg)?
**A.** 385%

**Q.** What about the T/C (Candida albicans [2]; 5 mg/kg) of the same compound?
**A.** 450%

**Q.** And the “apothanasia effects upon oral administration (in words)” value (Candida albicans [2]; compared with fluconazole)?
**A.** greater than fulconazole

**Q.** And the body weight ([3]; 0 days after administration)?
**A.** 21.0 g

**Q.** And the body weight ([3]; 1 day after administration)?
**A.** 20.6 g

**Q.** And the body weight ([3]; 2 days after administration)?
**A.** 21.4 g

**Q.** What about the body weight ([3]; 3 days after administration) of the same compound?
**A.** 22.2 g

**Q.** And the body weight ([3]; 4 days after administration)?
**A.** 23.0 g

**Q.** And the body weight ([3]; 5 days after administration)?
**A.** 23.3 g

**Q.** What about the body weight ([3]; 6 days after administration) of the same compound?
**A.** 23.1 g

**Q.** What about the “body weight change after administration (in words)” value [3] of the same compound?
**A.** the body weight increased steadily

**Q.** And the LD50 (Acute toxicity, oral)?
**A.** 1200 mg/kg
